Converted amounts (≈) assume the structure as drawn.
Tested on: HeLa
Assay: Cytotoxicity against human HeLa cells incubated for 48 hrs by MTT assay
Assay type: functional
Conditions: not given
In the case of Cc1ccc(CN2CCn3nc(C(=O)N4CCCCC4)cc3C2=O)cc1, the GI50 is reported as greater than 100 µg/mL. Compound O=C(c1cc2n(n1)CCN(Cc1ccc(Cl)c(Cl)c1)C2=O)N1CCCCC1 has a GI50 greater than 100 µg/mL. Work on Cc1cccc(CN2CCn3nc(C(=O)N4CCCCC4)cc3C2=O)c1 yielded a GI50 greater than 100 µg/mL. Compound O=C(c1cc2n(n1)C(O)CN(Cc1ccc(Cl)c(Cl)c1)C2=O)N1CCCCC1 (stereo unspecified) has a GI50 greater than 100 µg/mL. Work on O=C(c1cn2ccn(Cc3ccc(Cl)c(Cl)c3)c(=O)c2n1)N1CCCCC1 yielded a GI50 greater than 100 µg/mL. CC(C)(C)c1ccc(Cn2ccn3cc(C(=O)N4CCCCC4)nc3c2=O)cc1 gave a GI50 greater than 100 µg/mL. In the case of O=C(c1cc2c(=O)n(Cc3ccc(Cl)c(Cl)c3)ccn2n1)N1CCCCC1, the GI50 is reported as greater than 100 µg/mL. Work on O=C(c1cc2n(n1)CCCN(Cc1ccc(Cl)c(Cl)c1)C2=O)N1CCCCC1 yielded a GI50 greater than 100 µg/mL.

Tested on: not listed separately
Assay: Lipophilicity, log D of the compound
Assay type: physicochemical
Conditions: octanol/water
Work on O=C(c1cc2n(n1)CCN(Cc1ccc(Cl)c(Cl)c1)C2=O)N1CCCCC1 yielded a logD of 3.8. With O=C(c1cc2n(n1)C(O)CN(Cc1ccc(Cl)c(Cl)c1)C2=O)N1CCCCC1 (stereo unspecified) the logD was 3.1. With O=C(c1cn2ccn(Cc3ccc(Cl)c(Cl)c3)c(=O)c2n1)N1CCCCC1 the logD was 3.6. With CC(C)(C)c1ccc(Cn2ccn3cc(C(=O)N4CCCCC4)nc3c2=O)cc1 the logD was 4.1. O=C(c1cc2c(=O)n(Cc3ccc(Cl)c(Cl)c3)ccn2n1)N1CCCCC1 gave a logD of 3.5. Work on O=C(c1cc2n(n1)CCCN(Cc1ccc(Cl)c(Cl)c1)C2=O)N1CCCCC1 yielded a logD of 2.1.

Target: CYP3A4 (Homo sapiens, UniProt P08684)
Sequence (P08684 whole entry): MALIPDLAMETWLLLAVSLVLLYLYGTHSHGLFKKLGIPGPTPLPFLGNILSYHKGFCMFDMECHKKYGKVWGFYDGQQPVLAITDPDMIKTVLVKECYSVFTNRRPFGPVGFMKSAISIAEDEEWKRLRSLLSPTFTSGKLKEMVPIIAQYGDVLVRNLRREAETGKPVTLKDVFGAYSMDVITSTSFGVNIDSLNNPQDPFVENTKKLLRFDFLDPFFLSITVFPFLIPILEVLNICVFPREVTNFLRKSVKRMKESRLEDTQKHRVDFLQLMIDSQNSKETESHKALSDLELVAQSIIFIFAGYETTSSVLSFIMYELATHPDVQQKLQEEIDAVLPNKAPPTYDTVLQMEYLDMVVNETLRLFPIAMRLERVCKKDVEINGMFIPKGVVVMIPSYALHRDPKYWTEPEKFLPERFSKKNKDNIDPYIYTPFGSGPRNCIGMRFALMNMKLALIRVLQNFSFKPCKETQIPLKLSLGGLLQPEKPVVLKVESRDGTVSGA
Assay: Inhibition of CYP3A4 in human liver microsomes at 10 uM
Assay type: ADME
Conditions: not given
Compound O=C(c1cc2n(n1)CCN(Cc1ccc(Cl)c(Cl)c1)C2=O)N1CCCCC1 has an inhibition at 10 µM of 16%. O=C(c1cc2n(n1)C(O)CN(Cc1ccc(Cl)c(Cl)c1)C2=O)N1CCCCC1 (stereo unspecified) showed an inhibition at 10 µM of 0%. With O=C(c1cn2ccn(Cc3ccc(Cl)c(Cl)c3)c(=O)c2n1)N1CCCCC1 the inhibition at 10 µM was 0%. CC(C)(C)c1ccc(Cn2ccn3cc(C(=O)N4CCCCC4)nc3c2=O)cc1 showed an inhibition at 10 µM of 0%. With O=C(c1cc2c(=O)n(Cc3ccc(Cl)c(Cl)c3)ccn2n1)N1CCCCC1 the inhibition at 10 µM was 0%. For O=C(c1cc2n(n1)CCCN(Cc1ccc(Cl)c(Cl)c1)C2=O)N1CCCCC1, the inhibition at 10 µM was 0%.

Target: T1, CYP1A2 (Homo sapiens, UniProt P05177)
T1 sequence (P05177 whole entry): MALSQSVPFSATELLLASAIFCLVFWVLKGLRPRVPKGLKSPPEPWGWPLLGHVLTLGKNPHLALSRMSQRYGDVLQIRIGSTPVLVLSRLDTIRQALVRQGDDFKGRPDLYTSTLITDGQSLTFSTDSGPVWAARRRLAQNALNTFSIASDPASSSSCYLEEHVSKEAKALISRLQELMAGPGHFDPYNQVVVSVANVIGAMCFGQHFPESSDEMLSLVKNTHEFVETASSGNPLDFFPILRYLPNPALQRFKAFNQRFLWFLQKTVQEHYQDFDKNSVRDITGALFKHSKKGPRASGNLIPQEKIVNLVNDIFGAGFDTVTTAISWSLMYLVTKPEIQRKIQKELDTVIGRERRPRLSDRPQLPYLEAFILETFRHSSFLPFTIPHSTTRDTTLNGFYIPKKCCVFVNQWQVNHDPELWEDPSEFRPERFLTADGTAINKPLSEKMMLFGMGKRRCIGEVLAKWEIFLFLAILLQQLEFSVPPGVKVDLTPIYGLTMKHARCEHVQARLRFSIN
Assay: Inhibition of CYP1A2 in human liver microsomes at 10 uM
Assay type: ADME
Conditions: not given
Work on O=C(c1cc2n(n1)CCN(Cc1ccc(Cl)c(Cl)c1)C2=O)N1CCCCC1 yielded an inhibition at 10 µM of 13%. O=C(c1cc2n(n1)C(O)CN(Cc1ccc(Cl)c(Cl)c1)C2=O)N1CCCCC1 (stereo unspecified) showed an inhibition at 10 µM of 1%. In the case of O=C(c1cn2ccn(Cc3ccc(Cl)c(Cl)c3)c(=O)c2n1)N1CCCCC1, the inhibition at 10 µM is reported as 3%. With CC(C)(C)c1ccc(Cn2ccn3cc(C(=O)N4CCCCC4)nc3c2=O)cc1 the inhibition at 10 µM was 0%. With O=C(c1cc2c(=O)n(Cc3ccc(Cl)c(Cl)c3)ccn2n1)N1CCCCC1 the inhibition at 10 µM was 0%. O=C(c1cc2n(n1)CCCN(Cc1ccc(Cl)c(Cl)c1)C2=O)N1CCCCC1 showed an inhibition at 10 µM of 13%.

Target: CYP2C19 (Homo sapiens, UniProt P33261)
Sequence (P33261 whole entry): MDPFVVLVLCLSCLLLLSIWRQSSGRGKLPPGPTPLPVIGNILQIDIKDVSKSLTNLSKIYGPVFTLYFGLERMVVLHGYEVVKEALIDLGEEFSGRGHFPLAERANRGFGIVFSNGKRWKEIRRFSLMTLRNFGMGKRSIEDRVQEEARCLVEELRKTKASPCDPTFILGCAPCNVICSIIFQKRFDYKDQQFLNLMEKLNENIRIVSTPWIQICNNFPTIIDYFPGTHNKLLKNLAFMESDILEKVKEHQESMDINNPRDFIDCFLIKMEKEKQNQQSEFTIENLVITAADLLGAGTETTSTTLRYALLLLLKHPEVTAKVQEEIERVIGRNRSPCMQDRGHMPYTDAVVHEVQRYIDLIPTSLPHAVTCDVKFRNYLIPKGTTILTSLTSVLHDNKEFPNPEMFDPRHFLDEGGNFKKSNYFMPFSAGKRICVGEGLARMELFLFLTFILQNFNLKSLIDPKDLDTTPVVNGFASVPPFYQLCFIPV
Assay: Inhibition of CYP2C19 in human liver microsomes at 10 uM
Assay type: ADME
Conditions: not given
O=C(c1cc2n(n1)CCN(Cc1ccc(Cl)c(Cl)c1)C2=O)N1CCCCC1 showed an inhibition at 10 µM of 0%. O=C(c1cc2n(n1)C(O)CN(Cc1ccc(Cl)c(Cl)c1)C2=O)N1CCCCC1 (stereo unspecified) gave an inhibition at 10 µM of 31%. For O=C(c1cn2ccn(Cc3ccc(Cl)c(Cl)c3)c(=O)c2n1)N1CCCCC1, the inhibition at 10 µM was 6%. For CC(C)(C)c1ccc(Cn2ccn3cc(C(=O)N4CCCCC4)nc3c2=O)cc1, the inhibition at 10 µM was 0%. O=C(c1cc2c(=O)n(Cc3ccc(Cl)c(Cl)c3)ccn2n1)N1CCCCC1 showed an inhibition at 10 µM of 11%. In the case of O=C(c1cc2n(n1)CCCN(Cc1ccc(Cl)c(Cl)c1)C2=O)N1CCCCC1, the inhibition at 10 µM is reported as 0%.

Target: CYP2C9 (Homo sapiens, UniProt P11712)
Sequence (P11712 whole entry): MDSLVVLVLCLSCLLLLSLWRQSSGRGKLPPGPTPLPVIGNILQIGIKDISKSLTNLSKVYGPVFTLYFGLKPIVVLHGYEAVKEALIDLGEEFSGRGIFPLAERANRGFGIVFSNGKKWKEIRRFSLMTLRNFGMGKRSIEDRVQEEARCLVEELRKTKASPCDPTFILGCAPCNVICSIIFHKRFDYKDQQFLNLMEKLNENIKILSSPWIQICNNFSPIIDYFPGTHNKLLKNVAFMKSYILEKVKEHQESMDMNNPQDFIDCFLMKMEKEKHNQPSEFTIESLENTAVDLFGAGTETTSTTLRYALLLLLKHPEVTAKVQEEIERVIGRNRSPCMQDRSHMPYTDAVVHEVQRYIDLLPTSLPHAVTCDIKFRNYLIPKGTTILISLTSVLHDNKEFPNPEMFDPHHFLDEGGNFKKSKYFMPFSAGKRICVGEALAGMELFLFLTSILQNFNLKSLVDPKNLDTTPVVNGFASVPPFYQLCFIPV
Assay: Inhibition of CYP2C9 in human liver microsomes at 10 uM
Assay type: ADME
Conditions: not given
O=C(c1cc2n(n1)CCN(Cc1ccc(Cl)c(Cl)c1)C2=O)N1CCCCC1 showed an inhibition at 10 µM of 11%. With O=C(c1cc2n(n1)C(O)CN(Cc1ccc(Cl)c(Cl)c1)C2=O)N1CCCCC1 (stereo unspecified) the inhibition at 10 µM was 24%. Compound O=C(c1cn2ccn(Cc3ccc(Cl)c(Cl)c3)c(=O)c2n1)N1CCCCC1 has an inhibition at 10 µM of 0%. CC(C)(C)c1ccc(Cn2ccn3cc(C(=O)N4CCCCC4)nc3c2=O)cc1 showed an inhibition at 10 µM of 2%. Work on O=C(c1cc2c(=O)n(Cc3ccc(Cl)c(Cl)c3)ccn2n1)N1CCCCC1 yielded an inhibition at 10 µM of 28%. Work on O=C(c1cc2n(n1)CCCN(Cc1ccc(Cl)c(Cl)c1)C2=O)N1CCCCC1 yielded an inhibition at 10 µM of 13%.

Target: not listed separately
Assay: Inhibition of ATP synathse in Mycobacterium smegmatis str. MC2 155 inverted membrane vesicles assessed as ATP formation pre-incubated for 30 mins before NADH-ADP-phosphate buffer cocktail addition and measured after 60 mins by kinase glow reagent based assay
Set-up: species or system Mycolicibacterium smegmatis MC2 155
Conditions: not given
For Cc1ccc(CN2CCn3nc(C(=O)N4CCCCC4)cc3C2=O)cc1, the IC50 was 520 nM. O=C(c1cc2n(n1)CCN(Cc1ccc(Cl)c(Cl)c1)C2=O)N1CCCCC1 gave an IC50 of 270 nM. Work on Cc1cccc(CN2CCn3nc(C(=O)N4CCCCC4)cc3C2=O)c1 yielded an IC50 of 42 nM. For O=C(c1cc2n(n1)C(O)CN(Cc1ccc(Cl)c(Cl)c1)C2=O)N1CCCCC1 (stereo unspecified), the IC50 was 1050 nM. With O=C(c1cn2ccn(Cc3ccc(Cl)c(Cl)c3)c(=O)c2n1)N1CCCCC1 the IC50 was 520 nM. With CC(C)(C)c1ccc(Cn2ccn3cc(C(=O)N4CCCCC4)nc3c2=O)cc1 the IC50 was 4700 nM. In the case of O=C(c1cc2c(=O)n(Cc3ccc(Cl)c(Cl)c3)ccn2n1)N1CCCCC1, the IC50 is reported as 810 nM. For O=C(c1cc2n(n1)CCCN(Cc1ccc(Cl)c(Cl)c1)C2=O)N1CCCCC1, the IC50 was 290 nM.

Tested on: not listed separately
Assay: Solubility in pH 6.8 buffer
Assay type: physicochemical
Conditions: not given
Work on O=C(c1cc2n(n1)CCN(Cc1ccc(Cl)c(Cl)c1)C2=O)N1CCCCC1 yielded a solubility of 7.2 µg/mL (≈ 17.7 µM). Work on O=C(c1cc2n(n1)C(O)CN(Cc1ccc(Cl)c(Cl)c1)C2=O)N1CCCCC1 (stereo unspecified) yielded a solubility of less than 1 µg/mL. For O=C(c1cn2ccn(Cc3ccc(Cl)c(Cl)c3)c(=O)c2n1)N1CCCCC1, the solubility was 1.2 µg/mL (≈ 2.96 µM). Compound CC(C)(C)c1ccc(Cn2ccn3cc(C(=O)N4CCCCC4)nc3c2=O)cc1 has a solubility of 2.7 µg/mL (≈ 6.88 µM). O=C(c1cc2c(=O)n(Cc3ccc(Cl)c(Cl)c3)ccn2n1)N1CCCCC1 showed a solubility of less than 1 µg/mL. With O=C(c1cc2n(n1)CCCN(Cc1ccc(Cl)c(Cl)c1)C2=O)N1CCCCC1 the solubility was 109 µg/mL (≈ 259 µM).

Tested on: Mycobacterium tuberculosis
Assay: Antimicrobial activity against Mycobacterium tuberculosis H37Rv assessed as reduction in microbial growth incubated for 5 days by CLSI protocol based assay
Assay type: functional
Conditions: 120 h
In the case of Cc1ccc(CN2CCn3nc(C(=O)N4CCCCC4)cc3C2=O)cc1, the MIC is reported as 8 µg/mL. In the case of O=C(c1cc2n(n1)CCN(Cc1ccc(Cl)c(Cl)c1)C2=O)N1CCCCC1, the MIC is reported as 16 µg/mL. With Cc1cccc(CN2CCn3nc(C(=O)N4CCCCC4)cc3C2=O)c1 the MIC was 16 µg/mL. O=C(c1cc2n(n1)C(O)CN(Cc1ccc(Cl)c(Cl)c1)C2=O)N1CCCCC1 (stereo unspecified) gave an MIC of 32 µg/mL. O=C(c1cn2ccn(Cc3ccc(Cl)c(Cl)c3)c(=O)c2n1)N1CCCCC1 showed an MIC of 4 µg/mL. Compound CC(C)(C)c1ccc(Cn2ccn3cc(C(=O)N4CCCCC4)nc3c2=O)cc1 has an MIC greater than 32 µg/mL. Compound O=C(c1cc2c(=O)n(Cc3ccc(Cl)c(Cl)c3)ccn2n1)N1CCCCC1 has an MIC of 4 µg/mL. Compound O=C(c1cc2n(n1)CCCN(Cc1ccc(Cl)c(Cl)c1)C2=O)N1CCCCC1 has an MIC of 8 µg/mL.

Target: CYP2D6 (Homo sapiens, UniProt P10635)
Sequence (P10635 whole entry): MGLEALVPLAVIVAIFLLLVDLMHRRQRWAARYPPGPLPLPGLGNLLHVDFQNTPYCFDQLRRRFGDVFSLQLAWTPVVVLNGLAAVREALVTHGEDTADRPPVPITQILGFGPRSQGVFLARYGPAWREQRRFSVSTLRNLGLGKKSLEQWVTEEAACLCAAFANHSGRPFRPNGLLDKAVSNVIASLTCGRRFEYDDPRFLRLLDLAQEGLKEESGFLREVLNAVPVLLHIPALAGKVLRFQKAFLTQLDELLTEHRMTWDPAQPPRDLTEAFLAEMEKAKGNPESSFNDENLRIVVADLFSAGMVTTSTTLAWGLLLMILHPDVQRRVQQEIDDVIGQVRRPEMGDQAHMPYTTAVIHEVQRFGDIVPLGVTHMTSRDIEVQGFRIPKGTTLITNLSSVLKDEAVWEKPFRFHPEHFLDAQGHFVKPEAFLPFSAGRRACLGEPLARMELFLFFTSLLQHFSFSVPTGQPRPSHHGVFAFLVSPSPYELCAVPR
Assay: Inhibition of CYP2D6 in human liver microsomes at 10 uM
Assay type: ADME
Conditions: not given
Compound O=C(c1cc2n(n1)CCN(Cc1ccc(Cl)c(Cl)c1)C2=O)N1CCCCC1 has an inhibition at 10 µM of 0%. In the case of O=C(c1cc2n(n1)C(O)CN(Cc1ccc(Cl)c(Cl)c1)C2=O)N1CCCCC1 (stereo unspecified), the inhibition at 10 µM is reported as 21%. For O=C(c1cn2ccn(Cc3ccc(Cl)c(Cl)c3)c(=O)c2n1)N1CCCCC1, the inhibition at 10 µM was 0%. Compound CC(C)(C)c1ccc(Cn2ccn3cc(C(=O)N4CCCCC4)nc3c2=O)cc1 has an inhibition at 10 µM of 6%. Compound O=C(c1cc2c(=O)n(Cc3ccc(Cl)c(Cl)c3)ccn2n1)N1CCCCC1 has an inhibition at 10 µM of 30%. Work on O=C(c1cc2n(n1)CCCN(Cc1ccc(Cl)c(Cl)c1)C2=O)N1CCCCC1 yielded an inhibition at 10 µM of 0%.

Reference: ChEMBL document CHEMBL4033732, “Identification and synthesis of novel inhibitors of mycobacterium ATP synthase” (Bioorg Med Chem Lett, 2017)
